Source: PubChem BioAssay (NCI)
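Values below derive from 48-hour exposures of cells grown in 96-well plates, with endpoints linearly interpolated between the two concentrations bracketing the appropriate inhibition level. Here, GI50 denotes the concentration required for 50% inhibition of growth. Definition used: TGI = concentration required for complete inhibition of growth.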

Assays:
Assay in all cases: NCI tumour cell line growth inhibition, 48 h
HT29 colon = system: HT29 colon
RXF 393 renal = system: RXF 393 renal
HCT-116 colon = system: HCT-116 colon
MDA-N = system: MDA-N
UACC-62 melanoma = system: UACC-62 melanoma
A498 renal = system: A498 renal
SR leukemia = system: SR leukemia
HOP-62 NSCLC = system: HOP-62 NSCLC
COLO 205 colon = system: COLO 205 colon
SF-295 CNS = system: SF-295 CNS
SW-620 colon = system: SW-620 colon
SK-MEL-28 melanoma = system: SK-MEL-28 melanoma
UACC-257 melanoma = system: UACC-257 melanoma
SK-MEL-5 melanoma = system: SK-MEL-5 melanoma
T-47D breast = system: T-47D breast
U251 CNS = system: U251 CNS
OVCAR-5 ovarian = system: OVCAR-5 ovarian
SK-OV-3 ovarian = system: SK-OV-3 ovarian

Row | SMILES | TGI (HT29 colon) [µM] | TGI (RXF 393 renal) [µM] | TGI (HCT-116 colon) [µM] | TGI (MDA-N) [µM] | TGI (UACC-62 melanoma) [µM] | TGI (A498 renal) [µM] | TGI (SR leukemia) [µM] | TGI (HOP-62 NSCLC) [µM] | TGI (COLO 205 colon) [µM] | TGI (SF-295 CNS) [µM] | TGI (SW-620 colon) [µM] | TGI (SK-MEL-28 melanoma) [µM] | TGI (UACC-257 melanoma) [µM] | TGI (SK-MEL-5 melanoma) [µM] | TGI (T-47D breast) [µM] | TGI (U251 CNS) [µM] | TGI (OVCAR-5 ovarian) [µM] | TGI (SK-OV-3 ovarian) [µM] | GI50 (SR leukemia) [µM]
1 | CC(=O)O[C@H]1[C@@H](N2CCN(C)CC2)C[C@H]2[C@@H]3CC=C4C[C@@H](N5CCCC5)CC[C@]4(C)[C@H]3CC[C@@]21C | > 100 | 71.8 | > 100 | > 100 | > 100 | > 100 | 5.52 | > 100 | > 100 | 53.5 | > 100 | 96.9 | 49.4 | 73 | > 100 | > 100 | > 100 | > 100 | 
2 | Cc1cc(C#N)c(Nc2c(C)cccc2[N+](=O)[O-])s1 |  | 55.4 | > 100 | > 100 | > 100 | > 100 | > 100 | 75.2 | > 100 | > 100 | > 100 | > 100 | > 100 |  | > 100 | > 100 | > 100 | > 100 | 
3 | O=C(O)c1cc(Sc2ccc([N+](=O)[O-])c(C(=O)O)c2)ccc1[N+](=O)[O-] | > 100 | > 100 | > 100 | > 100 | > 100 | > 100 | > 100 | > 100 | > 100 | > 100 | > 100 | > 100 | > 100 | > 100 | > 100 | > 100 | > 100 | > 100 | > 100
4 | Cc1cccc(NC(=S)N/N=C(/c2ccccc2)c2ccccn2)c1 | 17.4 | 13.2 | 13 | 20.8 | 15.5 | 13.7 | 7.13 | 17.5 | 12.8 | 10.7 | 20.4 | 40.5 | 1.57 | 7.18 | 19.6 | 12.5 | 8.68 | 14.1 | 
5 | COC(=O)CCC(=O)c1ccc2c(c1)CC1(C2)Cc2ccc3c(c2C1)CCCC3=O (stereo unspecified) | > 76.9 | 97.4 | > 100 | 47.9 | > 100 | 82.8 | 8.05 | 97.4 | > 67.6 | 79.3 | > 100 | > 100 | 54.6 | 22.5 | > 100 | > 100 | > 100 | > 100 | 
6 | CN1CCN(c2ccc(-n3cc(C(=O)O)c(=O)c4cc(F)c(N5CCN(C)CC5)cc43)nc2)CC1 | > 100 | > 100 | > 100 | > 100 | > 100 | > 100 | > 100 | > 100 | > 100 | > 100 | > 100 | > 100 | > 100 |  | > 100 | > 100 | > 100 | > 100 | 
7 | CC1(C)O[C@@H]2[C@@H]3OC(=O)C[C@@H]3[C@@H](COCc3ccccc3)[C@@H]2O1 | > 100 | > 100 | > 100 | > 100 | > 100 | > 100 | > 100 | > 100 | > 100 | > 100 | > 100 | > 100 | > 100 | > 100 | > 100 | > 100 | > 100 | > 100 | 
8 | Cc1nc2c(ncn2CCO)c(=O)[nH]1 | > 100 | > 100 | > 100 | > 100 | > 100 | > 100 | > 100 | > 100 | > 100 | > 100 | > 100 | > 100 | > 100 | > 100 | > 100 | > 100 | > 100 | > 100 | 
9 | O=C(O)C(F)(OC(F)(F)C(F)(OC(F)(F)C(F)(F)C(F)(F)F)C(F)(F)F)C(F)(F)F (stereo unspecified) | > 100 | > 100 | > 100 | > 100 | > 100 | > 100 | > 100 | > 100 | > 100 | > 100 | > 100 | > 100 | > 100 | > 100 | > 100 | > 100 | > 100 | > 100 | 
10 | CC1Cc2cc(O)ccc2C2[C@@H]1C1CC[C@H](O)[C@@]1(C)C[C@@H]2O[N+](=O)[O-] (stereo partly specified) | 31.1 | 29.3 | 31.1 | 6.07 | 44 | 78.7 | > 56.8 | 44.4 | 50.6 | 39.2 | > 100 | 81.8 | 72.3 | 17.8 | > 84.3 | 23 | > 100 | > 100 | 
11 | CCCCCC(/C=N/N)C(O)(C(F)(F)F)C(F)(F)F (stereo unspecified) | > 10 | > 10 | 9.02 | > 10 | > 10 | 7.95 | > 10 | > 10 | 3.4 | 8.6 | > 10 | 7.43 | > 10 | 3.92 | > 10 | > 10 | > 10 | > 10 | 
12 | CN(C)/C=N/S(=O)(=O)c1nn2c(C=O)c(-c3ccc(-c4ccc([N+](=O)[O-])cc4)o3)nc2s1 | 2.19 | 5.04 | 3.68 | 2.7 | 16.8 | 54.2 | 5.4 | 27.7 |  | > 46.5 | > 23.5 | 6.22 | 24.3 | 16.3 | > 44.6 | > 30.2 | > 30.5 | > 71.5 | 
13 | CCCCCCCCCCCCP(=O)(O)OCC(N)C(=O)O (stereo unspecified) | > 100 | > 100 | 30.3 | 55.4 |  | 70.6 | > 100 | 31.6 | > 100 | 41.4 | > 100 | > 100 | > 100 | > 100 | > 100 | 24.8 | > 100 | 73.3 | 
14 | O=C1NN(c2ccccc2)C(=O)C2C3c4ccccc4C(c4ccccc43)C12 (stereo unspecified) | > 100 | > 100 | > 100 | > 100 | > 100 | > 100 | > 100 | > 100 | > 100 | > 100 | > 100 | > 100 | > 100 | > 100 | > 100 | > 100 |  | > 100 | 
15 | CC1(C)OC(=S)N(c2ccccc2)C12C=Cc1cc3ccccc3cc1O2 (stereo unspecified) | > 100 | > 100 | > 100 | > 100 | > 100 | > 100 | > 100 | > 100 | > 100 | > 100 | > 100 | > 100 | > 100 | > 100 | > 100 | > 100 | > 100 | > 100 | 
16 | C[C@]12CCC(=O)C=C1CC[C@@H]1C2CC[C@]2(C)Nc3c(ncn3-c3ccc(F)cc3)CC12 (stereo partly specified) | > 100 | 30.6 | 32.8 | 42.8 | 54.4 | > 100 | 29.9 | > 100 | 38.4 | 45.3 | > 100 | > 100 | 66.2 | 29.7 | 88.7 | 95.9 | > 100 | > 100 | 
17 | CC(=O)OCc1cn(S(=O)(=O)c2ccc(C)cc2)cn1 | > 100 | > 100 | > 100 | 52.6 | > 100 | > 100 | > 100 | > 100 | > 100 | > 100 | > 100 | > 100 |  | > 100 | > 100 | > 100 |  | > 100 | 
18 | O=C1O[C@H]2[C@@H]3OC(=O)c4cc(O)c(O)c(O)c4-c4c(cc(O)c(O)c4O)C(=O)OC[C@H]2O[C@@H](OC(=O)c2cc(O)c(O)c(O)c2)[C@@H]3OC(=O)c2cc(O)c(O)c3c2[C@@H]2C1=CC(=O)C(O)(O)C2(O)O3 (stereo partly specified) | 34.2 | > 100 | 32 | 34.6 | > 100 | > 100 | > 100 | > 100 | > 100 | > 100 | 38.5 | > 100 | > 100 | > 100 | 90.7 | 33.5 | 67.1 | > 100 | 
19 | CCc1n[nH]c(=O)n1NC(=O)/C=C\C(=O)O | > 100 | > 100 | > 100 | > 100 | > 100 | > 100 | > 100 | > 100 | > 100 | > 100 |  |  | > 100 | > 100 | > 100 | > 100 | > 100 | > 100 | 
20 | Cc1ccc(C)c(NC(=O)C(Cc2c[nH]c3ccccc23)NC(=O)OCc2ccccc2)c1 (stereo unspecified) | 45.1 | 22 | 98.6 | > 100 | 59.7 | > 100 | 48.2 | > 100 | 46.1 | > 100 | 35.5 | > 100 | 34.3 | 34.5 | 38 | 35.1 | > 100 | 50.1 | 
21 | [N-]=[N+]=NC1=C(c2ccccc2)C(=O)c2cccc3cccc1c23 | 27 | 60.6 | > 100 | > 100 | 34.9 | 8.29 | > 100 | 91.1 | > 100 | 26.5 | > 100 | > 100 | 29.2 | 18.1 | 82.1 | > 100 | > 100 | > 100 | 
22 | Cc1cc(-c2nc3cc(F)c(F)cc3s2)ccc1N | > 100 | > 100 | > 100 | > 100 | > 100 | > 100 | > 100 | > 71.3 | > 100 | > 82.9 | > 100 | > 100 | > 100 | > 100 | > 100 | > 100 | > 100 | > 100 | 
23 | CCOP(C)(=O)C(Nc1ccc(F)cc1)c1ccc(F)cc1 (stereo unspecified) | > 100 | > 100 | > 100 | > 100 | > 100 | > 100 | > 100 | > 100 | > 100 | > 100 | > 100 | > 100 | > 100 | > 100 | > 100 | > 100 | > 100 | > 100 | 
24 | O=C(/C(=C/c1cccs1)c1ccccc1)c1ccccc1 | > 100 | 18.8 | > 100 | > 100 | > 100 | > 100 | > 100 | 58.2 | > 100 | > 100 | > 100 | > 100 | > 100 | > 100 | > 100 | > 100 | > 100 | > 100 | 
25 | Cc1nc(C)c(N2CCN(C#N)CC2)c(=O)[nH]1 | > 100 | > 100 | > 100 | > 100 | > 100 | > 100 | > 100 | > 100 | > 100 | > 100 | > 100 | > 100 | > 100 | > 100 | > 100 | > 100 |  | > 100 | 
26 | COc1c(O)cc(C(=O)O[C@@H]2Cc3c(O)cc(O)cc3O[C@@H]2c2cc(O)c(O)c(O)c2)cc1O | 37.1 | 37.2 | 35.4 | 58.4 | 78.4 | > 100 | 95.8 | 92.3 |  | 46.2 | 59.8 | > 100 | > 100 | 44.3 | 86 |  | > 100 | > 100 | 
